Assay results: ChEMBL document CHEMBL1201862, “PubChem BioAssay data set” (2004)
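Briefly, cells in 96-well plates were exposed to five compound concentrations for 48 h, and endpoints were estimated by linear interpolation. Here, GI50 denotes the concentration required for 50% inhibition of growth.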 Calls of active or inactive are those of the source. Cut-off read from the data, not from the text of the source: active = GI50 up to about 1.1 µM and inactive = higher.

What was measured:
Test in all cases: inhibition of tumour cell growth, NCI panel, 48 h
HOP-18 = test system: HOP-18
M19-MEL = test system: M19-MEL
DMS-114 = test system: DMS-114
RXF 631 = test system: RXF 631
KM-20L2 = test system: KM-20L2
LXFL 529 = test system: LXFL 529
DMS-273 = test system: DMS-273
XF498 = test system: XF498
SNB-78 = test system: SNB-78

| Compound | GI50 (HOP-18) | GI50 (M19-MEL) | GI50 (DMS-114) | GI50 (RXF 631) | GI50 (KM-20L2) | GI50 (LXFL 529) | GI50 (DMS-273) | GI50 (XF498) | GI50 (SNB-78) |
| --- | --- | --- | --- | --- | --- | --- | --- | --- | --- |
| COc1cc(/C=C2/C(=O)N(C(=O)OCc3ccccc3)C(Cc3cc(OC)c(OC)c(C)c3OC)C(=O)N2Cc2ccccc2)c(OC)c(C)c1OC (stereo not drawn) | 95.3 µM (inactive) | 69.7 µM (inactive) | 54.6 µM (inactive) | > 100 µM (inactive) | > 100 µM (inactive) | 9.42 µM (inactive) | 40.6 µM (inactive) | – | – |
| CS/C(=N/C(=O)c1ccccc1)SCCS/C(=N\C(=O)c1ccccc1)SC | – | > 100 µM (inactive) | 90.4 µM (inactive) | > 100 µM (inactive) | > 100 µM (inactive) | > 100 µM (inactive) | > 100 µM (inactive) | > 100 µM (inactive) | 66.8 µM (inactive) |
| COc1ccc(C(=O)O/N=C2/CCC/C2=C\c2ccccc2)cc1 | > 100 µM (inactive) | > 100 µM (inactive) | > 100 µM (inactive) | > 100 µM (inactive) | > 100 µM (inactive) | > 100 µM (inactive) | > 100 µM (inactive) | > 100 µM (inactive) | > 68.5 µM (inactive) |
| CCOC(=O)/C(=C\c1ccc(O)c(OC)c1)C(=O)c1ccccc1 | 38.9 µM (inactive) | 20.8 µM (inactive) | – | – | > 41.7 µM (inactive) | 10.6 µM (inactive) | – | 27.6 µM (inactive) | 2.56 µM (inactive) |
| COc1cc2c(c(OC)c1OC)-c1[nH]ncc1CC2 | > 100 µM (inactive) | > 100 µM (inactive) | > 100 µM (inactive) | – | > 100 µM (inactive) | > 100 µM (inactive) | > 100 µM (inactive) | > 100 µM (inactive) | > 100 µM (inactive) |
| Cc1ccc(Sc2cc([N+](=O)[O-])cc(Sc3ccc(C)cc3)c2Sc2ccc(C)cc2)cc1 | – | > 100 µM (inactive) | > 100 µM (inactive) | – | > 100 µM (inactive) | > 100 µM (inactive) | > 100 µM (inactive) | > 100 µM (inactive) | > 100 µM (inactive) |
| COC(=O)C1=C(SC)SC2(C(=O)OC)C3C=C(C)C4C(N13)C42C(=O)OC (stereo not drawn) | – | > 100 µM (inactive) | > 100 µM (inactive) | – | > 100 µM (inactive) | > 100 µM (inactive) | > 100 µM (inactive) | – | – |
| CC(C)c1cccc(C(C)C)c1N1C(=O)C(=O)C(c2nc3ccccc3o2)C(=O)C1=O | – | 63.4 µM (inactive) | 24.5 µM (inactive) | > 100 µM (inactive) | 79.1 µM (inactive) | 42.2 µM (inactive) | 68.2 µM (inactive) | 38.5 µM (inactive) | > 100 µM (inactive) |
| COC1=CC(O)(CC(N)=O)c2ccccc2C1=O (stereo not drawn) | > 100 µM (inactive) | > 100 µM (inactive) | > 100 µM (inactive) | > 100 µM (inactive) | > 100 µM (inactive) | > 100 µM (inactive) | > 100 µM (inactive) | > 100 µM (inactive) | > 100 µM (inactive) |
| C=C(CCCO)[C@@H]1CC[C@@](C)(O)[C@H]1C | > 100 µM (inactive) | > 100 µM (inactive) | > 100 µM (inactive) | > 100 µM (inactive) | > 100 µM (inactive) | > 100 µM (inactive) | > 100 µM (inactive) | > 100 µM (inactive) | > 100 µM (inactive) |
| COc1cc(/C=C2\C(=O)N(C(=O)Cc3ccccc3)N=C2C)cc(OC)c1OC | > 100 µM (inactive) | > 100 µM (inactive) | > 100 µM (inactive) | – | – | – | > 100 µM (inactive) | > 100 µM (inactive) | > 100 µM (inactive) |
| O=C(CCC(=O)Nc1ccc(Cl)c(Cl)c1)CC(=O)c1ccc(Br)cc1 | > 100 µM (inactive) | > 100 µM (inactive) | > 100 µM (inactive) | > 100 µM (inactive) | > 100 µM (inactive) | 61.8 µM (inactive) | – | > 100 µM (inactive) | > 100 µM (inactive) |
| CC(=O)NC(CCCCNC(=O)OCc1ccccc1)C(=O)NCc1ccccc1 (stereo not drawn) | – | > 100 µM (inactive) | > 100 µM (inactive) | – | > 100 µM (inactive) | > 100 µM (inactive) | > 100 µM (inactive) | > 100 µM (inactive) | 88.9 µM (inactive) |
| COc1cc2c(cc1OC)C(C#N)(Cc1ccccc1)N(C(=O)c1ccccc1)C=C2 (stereo not drawn) | > 100 µM (inactive) | 96.6 µM (inactive) | 17.6 µM (inactive) | 45.3 µM (inactive) | 67.3 µM (inactive) | 39.4 µM (inactive) | 60.7 µM (inactive) | 8.15 µM (inactive) | > 100 µM (inactive) |
| O=C1O/C(=C(/c2ccc(Cl)cc2)c2nc3ccccc3[nH]2)C(O)=C1c1ccc(Cl)cc1 | 2.09 µM (inactive) | – | 1.24 µM (inactive) | 0.891 µM (active) | 2.38 µM (inactive) | 2.65 µM (inactive) | 2.08 µM (inactive) | – | 4 µM (inactive) |
| O=C(/C=C/c1ccccc1F)C(c1ccccc1)c1ccccc1 | – | – | – | – | 3.8 µM (inactive) | 3.37 µM (inactive) | 3.85 µM (inactive) | 1.99 µM (inactive) | 5.93 µM (inactive) |
| O=C(Cc1nc2ccccc2o1)C(=O)Nc1ccc(Cl)cc1Cl | > 100 µM (inactive) | > 100 µM (inactive) | > 100 µM (inactive) | – | > 100 µM (inactive) | > 100 µM (inactive) | > 100 µM (inactive) | – | > 100 µM (inactive) |
| Nc1ccc(C(=O)NN2C(=O)C(Cl)C2c2ccccc2)cc1 (stereo not drawn) | – | > 100 µM (inactive) | > 100 µM (inactive) | – | > 100 µM (inactive) | > 100 µM (inactive) | > 100 µM (inactive) | > 100 µM (inactive) | > 100 µM (inactive) |
| O=Cc1cc2c(s1)C(=O)c1sccc1C2=O | 0.183 µM (active) | 0.0237 µM (active) | 0.188 µM (active) | – | 2.1 µM (inactive) | 0.2 µM (active) | 0.168 µM (active) | 1.26 µM (inactive) | 1.41 µM (inactive) |
| O=C(c1ccccc1)[C@@H]1C[C@H](Sc2ccccc2)c2cc(Cl)ccc2N1 | > 100 µM (inactive) | 30.1 µM (inactive) | 21.1 µM (inactive) | 28.1 µM (inactive) | 26.9 µM (inactive) | 24 µM (inactive) | 24 µM (inactive) | 18.9 µM (inactive) | 36.9 µM (inactive) |
| CC1(C)C(=O)/C=C\C(=O)C(C)(C)C2=CC=C(O2)C(C)(C)C(=O)C(Br)C(Br)C(=O)C(C)(C)C2=CC=C1O2 (stereo not drawn) | > 100 µM (inactive) | 53.7 µM (inactive) | > 31.6 µM (inactive) | > 100 µM (inactive) | > 100 µM (inactive) | 27.9 µM (inactive) | 33.3 µM (inactive) | > 67.5 µM (inactive) | 41.8 µM (inactive) |
| CCOC(=O)Nc1ccc(S(=O)(=O)I)cc1.CCOC(=O)Nc1ccc(S(=O)(=O)I)cc1.CNC(=O)N=O.NC(=O)OCCCl | – | – | > 100 µM (inactive) | > 100 µM (inactive) | > 100 µM (inactive) | > 100 µM (inactive) | – | > 100 µM (inactive) | > 100 µM (inactive) |
| CN(C)c1ccc(N=O)c(O)c1.CN(C)c1ccc(N=O)c(O)c1.[SiH4] | 12.1 µM (inactive) | 5.56 µM (inactive) | 3.72 µM (inactive) | – | 4.65 µM (inactive) | 5.64 µM (inactive) | – | 9.4 µM (inactive) | – |
| Oc1ncc(N(CCCl)CCCl)c(O)n1 [URACIL MUSTARD] | 51.6 µM (inactive) | 63.2 µM (inactive) | 14 µM (inactive) | – | 69.5 µM (inactive) | 71.4 µM (inactive) | 4.55 µM (inactive) | 23 µM (inactive) | 79.6 µM (inactive) |
